Measured values published in ChEMBL document CHEMBL1201862, “PubChem BioAssay data set” (2004).
Calls of active or inactive are those of the source.

Legend:
Vero [1] = assay: cells; type: functional, cell-based; settings: Chlorocebus sabaeus
Vero [2] = assay: cells; type: functional; settings: Chlorocebus sabaeus
[3] = biological target: T1, Probable nicotinate-nucleotide adenylyltransferase (Staphylococcus aureus (strain N315), UniProt P65502); type: functional, Staphylococcus aureus subsp. aureus N315;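 as to IC50 Mean: confirmatory dose-response retesting of NadD inhibitor hits first found in an ultra-high-throughput screen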
H9c2 = assay: cells; type: functional, cell-based; settings: Rattus norvegicus, H9c2, Myocardium
[4] = biological target: Intestinal-type alkaline phosphatase (Mus musculus, UniProt P24822); assay: PubChem AID 488785; type: functional
[5] = biological target: T2, Alkaline phosphatase, tissue-nonspecific isozyme (Homo sapiens, UniProt P05186); assay: TNAP enzyme inhibition by screening hits, dose response, selectivity assay for mouse IAP inhibitor project, biochemical, human TNAP, uHTS hits (AID 488906); type: functional
T2 sequence (P05186 whole entry): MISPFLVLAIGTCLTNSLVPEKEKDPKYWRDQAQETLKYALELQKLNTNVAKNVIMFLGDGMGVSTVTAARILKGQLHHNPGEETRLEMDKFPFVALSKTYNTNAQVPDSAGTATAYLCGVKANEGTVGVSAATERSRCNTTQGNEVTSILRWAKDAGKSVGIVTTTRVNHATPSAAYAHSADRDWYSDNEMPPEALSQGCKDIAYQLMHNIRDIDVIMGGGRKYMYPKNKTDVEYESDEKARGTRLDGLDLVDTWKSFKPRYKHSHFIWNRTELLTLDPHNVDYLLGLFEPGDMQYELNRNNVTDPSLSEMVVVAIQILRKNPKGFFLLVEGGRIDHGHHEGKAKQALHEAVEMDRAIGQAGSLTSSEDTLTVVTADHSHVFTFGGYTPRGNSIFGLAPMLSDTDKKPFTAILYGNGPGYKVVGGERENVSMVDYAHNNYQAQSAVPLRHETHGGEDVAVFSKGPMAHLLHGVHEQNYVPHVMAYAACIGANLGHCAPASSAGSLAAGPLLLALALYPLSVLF

[6] = biological target: Intestinal-type alkaline phosphatase (Homo sapiens, UniProt P09923); assay: inhibition of human intestinal alkaline phosphatase – biochemical, dose response (AID 488876); type: functional
[7] = biological target: T1, Probable nicotinate-nucleotide adenylyltransferase; type: functional, Staphylococcus aureus subsp. aureus N315; settings: read-out: IC50_Mean
[8] = biological target: T3, E3 ubiquitin-protein ligase XIAP (Homo sapiens, UniProt P98170); assay: Counter Screen using XIAP-Bir3 for Chemical Antagonists of Bir1/2 domains of IAP-family anti-apoptotic proteins. [Related pubchem assays (depositor defined):AID1018, AID1449, AID1514, AID1638, AID1749, AID1750, AID488957, AID488963]
[9] = biological target: T3, E3 ubiquitin-protein ligase XIAP; assay: small molecules displacing peptide from XIAP – biochemical, IAP family, fluorescence polarization (AID 1018); type: functional
[10] = biological target: DNA dC->dU-editing enzyme APOBEC-3G (Homo sapiens, UniProt Q9HC16); type: functional;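 also: Dose-response counterscreen measuring inhibition of APOBEC3G DNA deaminase activity, run while confirming APOBEC3A inhibitors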
[11] = biological target: DNA dC->dU-editing enzyme APOBEC-3A (Homo sapiens, UniProt P31941); assay: Dose Response confirmation of small molecule APOBEC3A DNA Deaminase Inhibitors via a fluorescence-based single-stranded DNA deaminase assay. [Related pubchem assays (depositor defined):AID493011, AID493024]; type: functional
[12] = biological target: Peroxisome proliferator-activated receptor gamma/Nuclear receptor coactivator 1 (Homo sapiens, UniProt P37231); assay: TR-FRET dose response biochemical High Throughput Screening assay for agonists of the steroid receptor coactivator 1 (SRC-1) recruitment by the peroxisome proliferator-activated receptor gamma (PPAR gamma): non-selective agonists. [Related pubchem assays (depositor defined):AID1300, AID1808, AID504735, AID631]; type: protein assay
[13] = biological target: Peroxisome proliferator-activated receptor gamma/Nuclear receptor coactivator 2 (Homo sapiens, UniProt P37231); assay: (§1) TR-FRET dose response biochemical High Throughput Screening assay for agonists of the steroid receptor coactivator 2 (SRC-2) recruitment by the peroxisome proliferator-activated receptor gamma (PPAR gamma): non-selective agonists. [Related pubchem assays: 1297, 1032 ]; type: functional
Cytochrome P450 2C19 = Cytochrome P450 2C19 (Homo sapiens, UniProt P33261); assay: Cytochrome panel assay with activity outcomes. Panel member name: p450-cyp2c19 Compounds with AC50 equal or less than 10 uM are considered active; type: functional; settings: read-out: AC50
[14] = biological target: Peroxisome proliferator-activated receptor gamma/Nuclear receptor coactivator 3 (Homo sapiens, UniProt P37231); assay: as §1, with “3 (SRC-3)” for “2 (SRC-2)”, “1301 (Confirmation screen.), 1048 (Primary screen.)]” for “1297, 1032 ]”; type: functional
Coagulation factor XII = biological target: T4, Coagulation factor XII (Homo sapiens, UniProt P00748); type: functional;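 also: activated factor XIIa alpha cleaving a fluorogenic AMC peptide substrate; inhibitor potency from loss of enzyme activity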
T4 sequence (P00748 whole entry): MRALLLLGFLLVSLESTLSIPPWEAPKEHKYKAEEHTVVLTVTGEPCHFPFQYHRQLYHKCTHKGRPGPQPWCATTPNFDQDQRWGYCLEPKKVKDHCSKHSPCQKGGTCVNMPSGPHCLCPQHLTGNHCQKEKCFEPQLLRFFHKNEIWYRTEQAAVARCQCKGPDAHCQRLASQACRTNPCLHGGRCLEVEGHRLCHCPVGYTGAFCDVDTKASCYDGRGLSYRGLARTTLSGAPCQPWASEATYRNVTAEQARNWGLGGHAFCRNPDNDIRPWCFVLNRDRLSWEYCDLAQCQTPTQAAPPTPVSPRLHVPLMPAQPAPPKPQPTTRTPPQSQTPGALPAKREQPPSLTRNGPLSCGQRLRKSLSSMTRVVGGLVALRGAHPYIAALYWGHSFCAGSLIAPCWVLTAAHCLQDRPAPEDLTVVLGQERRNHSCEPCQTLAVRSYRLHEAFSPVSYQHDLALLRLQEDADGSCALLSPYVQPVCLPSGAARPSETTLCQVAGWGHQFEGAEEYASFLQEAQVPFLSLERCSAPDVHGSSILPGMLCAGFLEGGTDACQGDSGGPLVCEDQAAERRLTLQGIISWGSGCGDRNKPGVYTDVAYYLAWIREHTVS

Protein skinhead-1 = biological target: T5, Protein skinhead-1 (Caenorhabditis elegans, UniProt P34707); type: functional
T5 sequence (P34707 whole entry): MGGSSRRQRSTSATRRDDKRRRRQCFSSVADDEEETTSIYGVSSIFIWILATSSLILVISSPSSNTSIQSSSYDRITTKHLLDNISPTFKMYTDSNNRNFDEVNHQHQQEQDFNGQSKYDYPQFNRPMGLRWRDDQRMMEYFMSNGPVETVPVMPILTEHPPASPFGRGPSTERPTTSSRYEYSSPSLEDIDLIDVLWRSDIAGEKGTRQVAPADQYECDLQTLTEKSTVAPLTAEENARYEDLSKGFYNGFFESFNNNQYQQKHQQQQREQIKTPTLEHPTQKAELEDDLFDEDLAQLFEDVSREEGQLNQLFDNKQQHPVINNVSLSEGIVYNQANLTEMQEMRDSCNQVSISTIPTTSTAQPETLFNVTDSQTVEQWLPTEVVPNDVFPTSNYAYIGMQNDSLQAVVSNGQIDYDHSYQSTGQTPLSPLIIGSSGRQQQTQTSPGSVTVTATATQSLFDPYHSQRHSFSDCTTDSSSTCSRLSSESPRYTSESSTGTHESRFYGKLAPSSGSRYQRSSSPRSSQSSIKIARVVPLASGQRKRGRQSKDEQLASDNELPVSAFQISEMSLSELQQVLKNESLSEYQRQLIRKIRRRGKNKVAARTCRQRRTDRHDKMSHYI

[15] = biological target: T6, Carboxy-terminal domain RNA polymerase II polypeptide A small phosphatase 1 (Homo sapiens, UniProt Q9GZU7); assay: CTDSP1 inhibitors, concentration-response, biochemical, absorbance readout, ultra-high-throughput screen actives (AID 540297); type: functional
T6 sequence (Q9GZU7 whole entry): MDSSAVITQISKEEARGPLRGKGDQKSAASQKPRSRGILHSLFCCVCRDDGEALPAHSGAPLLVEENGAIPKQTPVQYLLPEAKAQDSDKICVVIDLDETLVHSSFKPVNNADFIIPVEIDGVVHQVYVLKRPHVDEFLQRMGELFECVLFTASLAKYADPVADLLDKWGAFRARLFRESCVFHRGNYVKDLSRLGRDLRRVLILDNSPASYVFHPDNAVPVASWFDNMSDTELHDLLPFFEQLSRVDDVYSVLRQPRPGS

[16] = biological target: T7, Tyrosine-protein phosphatase non-receptor type 7 (Homo sapiens, UniProt P35236); assay: SAR analysis of chemical inhibitors of HePTP using a Fluorescent assay - Set 2. [Related pubchem assays (depositor defined):AID1059, AID1077, AID1661, AID2085, AID521]; type: functional
T7 sequence (P35236 whole entry): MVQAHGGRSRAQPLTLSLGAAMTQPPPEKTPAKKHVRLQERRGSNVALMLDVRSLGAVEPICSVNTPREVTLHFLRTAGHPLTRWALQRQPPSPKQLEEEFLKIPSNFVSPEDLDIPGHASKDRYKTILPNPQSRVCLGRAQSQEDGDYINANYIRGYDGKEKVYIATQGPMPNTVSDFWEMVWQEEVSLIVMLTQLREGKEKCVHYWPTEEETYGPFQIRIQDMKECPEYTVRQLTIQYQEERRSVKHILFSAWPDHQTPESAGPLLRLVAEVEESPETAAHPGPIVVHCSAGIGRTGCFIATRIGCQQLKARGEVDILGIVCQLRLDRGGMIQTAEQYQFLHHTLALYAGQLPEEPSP

[17] = biological target: Dual specificity protein phosphatase 3 (Homo sapiens, UniProt P51452); assay: SAR VHR1 Fluorescent Assay for In Vitro dose response studies Set 2. [Related pubchem assays (depositor defined):AID1654, AID1661, AID1878]; type: functional
INS1 = assay: beta-cell survival under cytokine stress – INS-1E, ATP luminescence, dry powder, dose response (AID 488844); type: functional, cell-based; settings: Rattus norvegicus
Albumin = Albumin (Bos taurus, UniProt P02769); assay: Counterscreen for inhibitors of T-cell receptor (TCR)-CD3 interaction: Fluorescence-based biochemical high throughput dose response assay to identify inhibitors of T-cell receptor (TCR)-CD3 interaction using a TAMRA-labeled BSA probe.; type: functional

T1 sequence (P65502 whole entry): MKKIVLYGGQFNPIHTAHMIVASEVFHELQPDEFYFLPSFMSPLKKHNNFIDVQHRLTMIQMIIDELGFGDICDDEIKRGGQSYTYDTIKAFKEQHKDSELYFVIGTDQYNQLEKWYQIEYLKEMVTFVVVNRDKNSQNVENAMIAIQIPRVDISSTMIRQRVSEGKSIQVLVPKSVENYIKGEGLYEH
T3 sequence (P98170 whole entry): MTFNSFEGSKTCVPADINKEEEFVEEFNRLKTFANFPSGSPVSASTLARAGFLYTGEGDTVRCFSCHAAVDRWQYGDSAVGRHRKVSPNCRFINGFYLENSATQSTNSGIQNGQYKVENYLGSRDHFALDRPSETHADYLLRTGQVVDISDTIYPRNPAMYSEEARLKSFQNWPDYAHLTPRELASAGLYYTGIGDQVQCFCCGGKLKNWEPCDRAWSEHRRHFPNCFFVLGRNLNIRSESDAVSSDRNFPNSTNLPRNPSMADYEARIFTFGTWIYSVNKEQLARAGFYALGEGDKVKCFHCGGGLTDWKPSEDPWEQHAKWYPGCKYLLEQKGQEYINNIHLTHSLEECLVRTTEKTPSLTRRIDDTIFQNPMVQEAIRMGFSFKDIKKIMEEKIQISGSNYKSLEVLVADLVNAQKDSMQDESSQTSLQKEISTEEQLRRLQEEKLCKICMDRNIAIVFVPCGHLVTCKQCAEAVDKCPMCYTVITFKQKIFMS
Sequence of DNA dC->dU-editing enzyme APOBEC-3G (Q9HC16 whole entry): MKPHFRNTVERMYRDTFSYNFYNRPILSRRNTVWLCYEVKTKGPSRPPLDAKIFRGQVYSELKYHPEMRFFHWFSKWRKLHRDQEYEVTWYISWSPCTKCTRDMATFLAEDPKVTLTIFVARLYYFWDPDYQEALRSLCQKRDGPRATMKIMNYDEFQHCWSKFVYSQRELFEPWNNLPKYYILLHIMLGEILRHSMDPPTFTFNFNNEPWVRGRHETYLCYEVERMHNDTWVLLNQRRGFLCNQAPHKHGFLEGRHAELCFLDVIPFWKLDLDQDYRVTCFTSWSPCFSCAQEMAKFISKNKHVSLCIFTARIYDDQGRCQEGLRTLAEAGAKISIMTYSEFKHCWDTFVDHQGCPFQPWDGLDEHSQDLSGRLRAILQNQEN
Sequence of Intestinal-type alkaline phosphatase (Homo sapiens, UniProt P09923) (P09923 whole entry): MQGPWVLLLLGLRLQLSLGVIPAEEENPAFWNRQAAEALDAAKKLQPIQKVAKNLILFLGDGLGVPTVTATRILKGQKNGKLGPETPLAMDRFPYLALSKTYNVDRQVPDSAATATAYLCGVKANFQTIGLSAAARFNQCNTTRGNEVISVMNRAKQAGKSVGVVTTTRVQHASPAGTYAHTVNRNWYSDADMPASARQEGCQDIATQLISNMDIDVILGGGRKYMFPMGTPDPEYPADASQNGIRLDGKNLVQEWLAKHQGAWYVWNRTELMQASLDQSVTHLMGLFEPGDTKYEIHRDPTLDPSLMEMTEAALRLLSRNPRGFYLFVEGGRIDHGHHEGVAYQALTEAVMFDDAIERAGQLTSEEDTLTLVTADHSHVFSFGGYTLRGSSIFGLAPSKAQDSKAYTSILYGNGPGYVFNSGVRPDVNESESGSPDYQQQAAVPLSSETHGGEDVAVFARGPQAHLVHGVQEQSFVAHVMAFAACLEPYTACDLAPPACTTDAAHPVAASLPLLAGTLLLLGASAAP
Sequence of Intestinal-type alkaline phosphatase (Mus musculus, UniProt P24822) (P24822 whole entry): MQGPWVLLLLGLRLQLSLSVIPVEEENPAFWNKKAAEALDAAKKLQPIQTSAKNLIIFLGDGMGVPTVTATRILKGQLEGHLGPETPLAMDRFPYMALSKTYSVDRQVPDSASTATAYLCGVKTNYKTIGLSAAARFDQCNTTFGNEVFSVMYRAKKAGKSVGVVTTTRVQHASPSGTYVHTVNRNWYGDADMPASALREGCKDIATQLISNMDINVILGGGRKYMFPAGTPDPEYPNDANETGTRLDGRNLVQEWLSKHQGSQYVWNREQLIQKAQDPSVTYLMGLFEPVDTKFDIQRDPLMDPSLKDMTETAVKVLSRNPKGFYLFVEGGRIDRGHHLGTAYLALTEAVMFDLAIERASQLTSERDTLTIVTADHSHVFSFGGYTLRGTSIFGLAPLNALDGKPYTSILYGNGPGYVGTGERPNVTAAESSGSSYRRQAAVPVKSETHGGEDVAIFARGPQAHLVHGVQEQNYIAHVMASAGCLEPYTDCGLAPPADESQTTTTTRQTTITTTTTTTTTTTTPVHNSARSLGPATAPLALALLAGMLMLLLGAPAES
Sequence of DNA dC->dU-editing enzyme APOBEC-3A (P31941 whole entry): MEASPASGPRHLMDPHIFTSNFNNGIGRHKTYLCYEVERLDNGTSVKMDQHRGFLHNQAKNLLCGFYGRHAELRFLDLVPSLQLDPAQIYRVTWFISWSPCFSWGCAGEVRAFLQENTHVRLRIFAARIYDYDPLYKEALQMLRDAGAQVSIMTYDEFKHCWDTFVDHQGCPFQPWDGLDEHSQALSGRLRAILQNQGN
Sequence of Peroxisome proliferator-activated receptor gamma/Nuclear receptor coactivator 2 (P37231 whole entry): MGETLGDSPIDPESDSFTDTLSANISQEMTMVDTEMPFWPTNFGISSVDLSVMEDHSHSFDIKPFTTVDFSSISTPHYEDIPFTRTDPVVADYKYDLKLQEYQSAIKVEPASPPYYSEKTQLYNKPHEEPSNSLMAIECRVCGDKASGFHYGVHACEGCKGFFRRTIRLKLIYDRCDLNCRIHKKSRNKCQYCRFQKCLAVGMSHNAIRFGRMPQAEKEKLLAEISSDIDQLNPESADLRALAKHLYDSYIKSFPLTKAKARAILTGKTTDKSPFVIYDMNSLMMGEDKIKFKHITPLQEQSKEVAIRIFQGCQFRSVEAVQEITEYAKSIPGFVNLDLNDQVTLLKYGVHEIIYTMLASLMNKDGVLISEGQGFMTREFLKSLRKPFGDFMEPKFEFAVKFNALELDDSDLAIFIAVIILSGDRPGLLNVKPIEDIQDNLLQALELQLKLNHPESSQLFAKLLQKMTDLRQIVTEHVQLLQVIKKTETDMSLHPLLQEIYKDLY
Sequence of Peroxisome proliferator-activated receptor gamma/Nuclear receptor coactivator 2 (Q15596 whole entry, further chain): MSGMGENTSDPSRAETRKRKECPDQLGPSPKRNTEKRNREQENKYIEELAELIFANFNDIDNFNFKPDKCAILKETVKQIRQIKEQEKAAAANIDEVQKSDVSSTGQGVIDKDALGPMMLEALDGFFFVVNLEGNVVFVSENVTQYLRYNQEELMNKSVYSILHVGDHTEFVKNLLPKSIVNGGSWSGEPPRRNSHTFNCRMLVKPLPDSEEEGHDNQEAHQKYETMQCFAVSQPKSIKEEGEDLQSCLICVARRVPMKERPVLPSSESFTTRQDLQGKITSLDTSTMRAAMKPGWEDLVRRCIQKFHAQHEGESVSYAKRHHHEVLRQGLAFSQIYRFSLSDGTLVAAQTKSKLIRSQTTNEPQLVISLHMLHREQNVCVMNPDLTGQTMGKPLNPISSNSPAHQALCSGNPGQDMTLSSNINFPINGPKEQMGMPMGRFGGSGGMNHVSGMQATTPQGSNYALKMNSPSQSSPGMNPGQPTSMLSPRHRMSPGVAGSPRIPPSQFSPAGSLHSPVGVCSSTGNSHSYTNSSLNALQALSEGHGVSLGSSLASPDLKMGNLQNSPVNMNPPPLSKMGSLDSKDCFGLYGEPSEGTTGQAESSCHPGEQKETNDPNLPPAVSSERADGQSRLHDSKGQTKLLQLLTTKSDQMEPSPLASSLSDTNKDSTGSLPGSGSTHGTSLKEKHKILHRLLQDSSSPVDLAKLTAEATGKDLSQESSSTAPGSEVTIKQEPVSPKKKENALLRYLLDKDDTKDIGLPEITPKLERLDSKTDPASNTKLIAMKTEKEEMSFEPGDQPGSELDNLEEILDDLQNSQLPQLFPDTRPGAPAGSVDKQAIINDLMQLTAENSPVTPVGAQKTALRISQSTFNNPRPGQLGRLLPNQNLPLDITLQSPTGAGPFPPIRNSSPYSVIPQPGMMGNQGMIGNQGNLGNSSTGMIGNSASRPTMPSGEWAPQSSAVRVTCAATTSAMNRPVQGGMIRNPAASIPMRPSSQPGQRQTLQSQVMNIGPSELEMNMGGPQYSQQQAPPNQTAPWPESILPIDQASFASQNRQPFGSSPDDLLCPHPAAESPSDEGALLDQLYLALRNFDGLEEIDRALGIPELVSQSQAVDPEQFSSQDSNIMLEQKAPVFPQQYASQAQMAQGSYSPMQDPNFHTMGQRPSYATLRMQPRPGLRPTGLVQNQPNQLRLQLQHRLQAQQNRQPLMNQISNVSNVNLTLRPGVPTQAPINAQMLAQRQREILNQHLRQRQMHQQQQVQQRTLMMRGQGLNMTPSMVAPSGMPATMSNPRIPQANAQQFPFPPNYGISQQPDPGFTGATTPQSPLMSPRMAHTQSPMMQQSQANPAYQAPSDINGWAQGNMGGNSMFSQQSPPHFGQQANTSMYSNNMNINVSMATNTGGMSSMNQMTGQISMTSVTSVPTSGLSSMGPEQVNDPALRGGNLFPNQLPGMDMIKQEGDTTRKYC
Sequence of Dual specificity protein phosphatase 3 (P51452 whole entry): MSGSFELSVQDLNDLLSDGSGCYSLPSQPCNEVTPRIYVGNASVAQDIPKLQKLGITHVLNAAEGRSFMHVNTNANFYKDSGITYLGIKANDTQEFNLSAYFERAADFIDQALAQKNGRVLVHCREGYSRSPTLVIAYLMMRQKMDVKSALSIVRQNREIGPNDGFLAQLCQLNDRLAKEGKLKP
Sequence of Cytochrome P450 2C19 (P33261 whole entry): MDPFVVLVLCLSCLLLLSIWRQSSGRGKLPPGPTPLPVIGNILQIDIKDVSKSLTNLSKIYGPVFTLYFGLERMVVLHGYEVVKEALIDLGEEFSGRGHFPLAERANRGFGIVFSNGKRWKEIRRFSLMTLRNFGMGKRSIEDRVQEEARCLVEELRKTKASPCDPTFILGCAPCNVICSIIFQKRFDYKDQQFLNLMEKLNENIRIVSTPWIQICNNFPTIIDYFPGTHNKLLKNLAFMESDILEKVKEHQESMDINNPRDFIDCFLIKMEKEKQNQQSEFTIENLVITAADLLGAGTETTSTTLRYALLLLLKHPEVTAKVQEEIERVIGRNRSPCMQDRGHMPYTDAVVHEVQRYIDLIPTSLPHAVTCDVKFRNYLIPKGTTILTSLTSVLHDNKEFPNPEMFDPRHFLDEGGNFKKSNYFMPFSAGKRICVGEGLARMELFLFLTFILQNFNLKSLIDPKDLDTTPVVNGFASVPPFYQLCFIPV

## CCN(C(=O)CCN1C(=O)/C(=C/c2ccccc2)SC1=S)C1CCS(=O)(=O)C1 (stereo unspecified)
Vero [1]
  IC50: > 25 µM (active)
Vero [2]
  CC50: 22.1 µM (active)

## O=C(NNC(=O)c1cc2cc(Br)ccc2oc1=O)c1ccc(O)cc1O
[3]
  IC50: 16.3 µM (active)
H9c2
  IC50: > 79 µM (inactive)
[4]
  IC50: 12.9 µM (active)
[5]
  IC50: > 100 µM (inactive)
[6]
  IC50: > 100 µM (inactive)
[7]
  IC50: 44.7 µM (active)

## COc1ccc(C(=O)N(CN2CCCC2=O)c2ccccc2OC)cc1OC
[8]
  IC50: > 100 µM (inactive)
[9]
  IC50: > 100 µM (not active)

## Cc1ccn(C)c(=N)c1
[10]
  IC50: 7.58 µM (active)
[11]
  IC50: 7.71 µM (active)

## Cn1c(=O)cc(SCC(=O)NCCCN2CCOCC2)c2ccc(Cl)cc21
[12]
  EC50: > 79.4 µM (inactive)
[13]
  EC50: > 79.4 µM (not active)
Cytochrome P450 2C19
  AC50: 10 µM (inconclusive)
[14]
  EC50: > 79.4 µM (not active)

## CCn1nc(C)c(CNC(=O)c2cc(COc3ccc(F)cc3Cl)on2)c1C
Coagulation factor XII
  IC50: > 50 µM (inactive)

## Clc1ccc(-c2nc3cc(CN4CCCCC4)ccc3o2)cc1
Vero [1]
  IC50: > 25 µM (active)
Protein skinhead-1
  IC50: 4.15 µM (active)
Vero [2]
  CC50: > 25 µM (active)

## Clc1ccccc1CN1CCN(CCCc2ccccc2)CC1
Coagulation factor XII
  IC50: > 50 µM (inactive)

## Cc1cc(-c2ccccc2)nc2c(Br)c(C(=O)O)nn12
[10]
  IC50: 37.7 µM (active)
[11]
  IC50: 25.2 µM (active)
[15]
  IC50: 2.44 µM (active)

## COc1ccc(OC)c(C(=S)NCc2ccc(C(F)(F)F)cc2)c1
[16]
  IC50: 38.4 µM (active)
[17]
  IC50: 48.4 µM (active)

## COc1ccc(S(=O)(=O)N(C)C[C@@H]2Oc3c(NC(=O)c4cc(C)nn4C)cccc3C(=O)N([C@@H](C)CO)C[C@H]2C)cc1
INS1
  AC50: > 260 µM (inactive)

## COc1cc(/C=N/NC(=O)c2cc(O)cc(O)c2)ccc1OC(=O)c1ccccc1
[4]
  IC50: 4.43 µM (active)
[5]
  IC50: 26.8 µM (active)
[6]
  IC50: 77.1 µM (active)
Albumin
  IC50: > 94.1 µM (inactive)
